Experiment: in vitro
Settings: human, hela cells, % viability

Going from `Cc1ccc2nc(SCC(=O)O)nc(C)c2c1` [CBK265996] to `COc1ccccc1NC(=O)CSc1nc(O)c2c(C)cc(C)nc2n1` [CBK266095], the viability at 28.5 h, 10 µM falls from 94.1% to 91.8%.

First: CC(=O)Oc1ccc(C(=O)Nc2ccc3c(c2)C(=O)N(CCC(=O)O)C3=O)cc1 [CBK265997]
Second: COc1ccccc1NC(=O)c1ccc(OC(C)C(=O)O)cc1 (centres unmarked) [CBK266109]
The viability at 28.5 h, 10 µM of the first is lower: 105% for the first, 106% for the second.

First: Cn1c(COc2ccccc2Cl)nnc1SCC(=O)N1c2ccccc2Sc2ccccc21 [CBK266001]
Second: CN(C)C(=O)CSc1nnc(-c2cccc3ccccc23)n1-c1ccccc1 [CBK266044]
The viability at 28.5 h, 10 µM of the first is higher: 96.5% for the first, 92% for the second.

Compared with `O=C(COc1cccc2ccccc12)Nc1ccc(O)cc1` [CBK266002], `O=C(COc1ccc(S(=O)(=O)NC2CCCCC2)cc1)Nc1cccc2ccccc12` [CBK266023] is higher in viability at 28.5 h, 10 µM: 88.6% for the first, 100% for the second.

Compared with `COC(=O)c1c(C)[nH]c(C(=O)CSc2ncnc3sc(C)c(-c4ccccc4)c23)c1C` [CBK266004], `Cc1nn(Cc2ccccc2)c(C)c1NC(=O)CSc1nc2sc3c(c2c(=O)n1C)CCC3` [CBK266069] is lower in viability at 28.5 h, 10 µM: 99.5% for the first, 96.4% for the second.

First: CC(NC(=O)Cn1c(-c2nonc2N)nc2ccccc21)c1ccccc1 (centres unmarked) [CBK266006]
Second: CC(=O)OC(COc1ccc2ccccc2c1Br)Cn1cnc2ccccc21 (centres unmarked) [CBK266083]
The viability at 28.5 h, 10 µM of the first is higher: 106% for the first, 84.6% for the second.

First: COc1ccc(OC)c(NC(=O)c2c(NCc3ccncc3)sc3c2CCC3)c1 [CBK266007]
Second: COC(=O)c1ccccc1NC(=O)COc1ccc(Cl)c2cccnc12 [CBK266037]
The viability at 28.5 h, 10 µM of the first is lower: 90.1% for the first, 104% for the second.

Compared with `O=C(COc1ccccc1[N+](=O)[O-])Nc1ccc(Br)cc1C(=O)O` [CBK266008], `Cc1ccc(OCC(=O)Nc2ccc3c(c2)oc2ccccc23)cc1[N+](=O)[O-]` [CBK266036] is higher in viability at 28.5 h, 10 µM: 84.9% for the first, 100% for the second.

First: COc1ccc(S(=O)(=O)Nc2ccc(S(=O)(=O)Nc3nccs3)cc2)cc1C [CBK266011]
Second: COc1ccc(S(=O)(=O)Nc2ccc(C(=O)O)cc2)cc1[N+](=O)[O-] [CBK266130]
The viability at 28.5 h, 10 µM of the first is lower: 101% for the first, 103% for the second.

Going from `CC(C)(c1ccccc1)c1ccc(OCC(=O)Nc2cccc(C(=O)O)c2)cc1` [CBK266014] to `CN1CCN(c2ccc(NC(=O)c3ccc(OCc4ccccc4)cc3)cc2)CC1` [CBK266124], the viability at 28.5 h, 10 µM falls from 102% to 99.6%.

Going from `CCOC(=O)c1ccc(-n2c(CCC(=O)O)ccc2-c2cccs2)cc1O` [CBK266015] to `NC(=O)Nn1c(CCC(=O)O)ccc1-c1cccs1` [CBK266019], the viability at 28.5 h, 10 µM falls from 103% to 93.1%.

First: CCOc1ccc(-n2c(SCc3ccc(Br)cc3)nnc2-c2ccncc2)cc1 [CBK266017]
Second: O=C(CSc1nnc(-c2cccnc2)n1-c1ccc(Br)cc1)Nc1cc(C(F)(F)F)ccc1Cl [CBK266099]
The viability at 28.5 h, 10 µM of the first is higher: 103% for the first, 96.5% for the second.

First: Cc1ccc(O)c(Nc2ncnc3ccccc23)c1 [CBK266020C]
Second: COc1nnc(-c2ccc(N3CCOCC3)c(NC(=O)COc3ccc(C)cc3)c2)c2ccccc12 [CBK266103]
The viability at 28.5 h, 10 µM of the first is lower: 93.2% for the first, 97.6% for the second.

Compared with `CCOC(=O)c1cnc2c(C)cc(C)cc2c1NCCCN(C)C` [CBK266021], `Cc1cc(C)c(OCCNC(=O)c2ccccc2Sc2ccccc2C#N)c(C)c1` [CBK266048] is higher in viability at 28.5 h, 10 µM: 76.5% for the first, 97.7% for the second.

Going from `c1ccc(-c2ccc(OCCCCN3CCNCC3)cc2)cc1` [CBK266028G] to `Clc1ccc(SCCN2CCNCC2)cc1` [CBK266077G], the viability at 28.5 h, 10 µM falls from 95.8% to 94.2%.

Going from `CC(Oc1cccc(Cl)c1)C(=O)O/N=C(\N)Cc1cccc2ccccc12` (centres unmarked) [CBK266033] to `O=C(CSc1nnc(Cc2cccc3ccccc23)n1-c1ccccc1)NC1CCCCC1` [CBK266052], the viability at 28.5 h, 10 µM rises from 90.3% to 102%.

Compared with `CCOC(=O)C1CCN(Cc2c(O)c3ccccc3oc2=O)CC1` [CBK266035], `OCCN1CCN(Cc2nc(O)c3ccccc3n2)CC1` [CBK266089] is higher in viability at 28.5 h, 10 µM: 70.6% for the first, 98.5% for the second.

Compared with `Cc1[nH]c2ccccc2c1C(c1ccccc1OCC(=O)O)c1c(C)[nH]c2ccccc12` [CBK266038], `Cc1nn(Cc2ccccc2)c(C)c1NC(=O)CSc1nc2c(c(C(F)(F)F)n1)CCc1ccccc1-2` [CBK266112] is lower in viability at 28.5 h, 10 µM: 109% for the first, 105% for the second.

Going from `O=C(NCC1CCCO1)c1ccccc1Sc1ccc([N+](=O)[O-])cc1Cl` (centres unmarked) [CBK266041] to `O=C(CSc1nnc(Cc2ccccc2)o1)Nc1c(Cl)cc(Cl)cc1Cl` [CBK266119], the viability at 28.5 h, 10 µM rises from 88.8% to 99.8%.

Compared with `Cc1cc(Cl)c(OCCN2CCCCCC2)c(Br)c1` [CBK266049G], `Cc1cc(C)c(OCCOCCN2CCNCC2)c(Br)c1` [CBK266079G] is higher in viability at 28.5 h, 10 µM: 91.7% for the first, 99.6% for the second.

First: COc1ccc(NC(=O)CSc2nnc(C(O)c3ccccc3)n2C)cc1 (centres unmarked) [CBK266053]
Second: Cn1c(NC(=O)CSc2nnc(Cc3cccc4ccccc34)o2)cc(=O)n(C)c1=O [CBK266055]
The viability at 28.5 h, 10 µM of the first is lower: 110% for the first, 115% for the second.

Going from `Cc1cc(Cl)cc(C)c1OCCN1CCNCC1` [CBK266057G] to `Cc1ccc(N2CCN(CC(O)COc3ccc(C(=O)c4ccc(Cl)cc4)cc3)CC2)c(C)c1` (centres unmarked) [CBK266117], the viability at 28.5 h, 10 µM rises from 84.4% to 110%.

Going from `COc1cccc(NC(=O)CSCc2n[nH]c(=O)[nH]2)c1` [CBK266058] to `Cc1cccc(Nc2nc(N)nc(CSc3nccn3C)n2)c1` [CBK266105], the viability at 28.5 h, 10 µM rises from 95.8% to 98.7%.

Going from `O=C(NC(=S)Nc1ccc(N2CCN(Cc3ccccc3Cl)CC2)cc1)c1ccco1` [CBK266066] to `CC(C)Oc1cccc(C(=O)Nc2ccc(N3CCN(C)CC3)cc2)c1` [CBK266090], the viability at 28.5 h, 10 µM falls from 101% to 90.5%.

Going from `Cc1cc(C)c2c(=O)[nH]c(SCC(=O)c3ccc(F)c(C)c3)nc2n1` [CBK266087] to `Nc1nnc(SCC(=O)c2ccc3ccccc3c2)s1` [CBK266120], the viability at 28.5 h, 10 µM falls from 102% to 97.7%.

Going from `CN(C)C1(c2nnnn2CCOC(=O)Nc2ccc(Cl)cc2)CCCCC1` [CBK266093] to `COC(=O)Cc1ccc(NC(=S)N2CCC(C(N)=O)(N3CCCCC3)CC2)cc1` [CBK266101], the viability at 28.5 h, 10 µM rises from 94.5% to 97.6%.

First: CC1(C)CC(=O)C2=C(C1)Nc1nc(SCc3ccc([N+](=O)[O-])cc3)[nH]c(=O)c1C2c1cccnc1 (centres unmarked) [CBK266096]
Second: CC(=O)Nc1ccc(S(=O)(=O)/N=C(\Nc2nc(C)cc(C)n2)Nc2ccccc2F)cc1 [CBK266134]
The viability at 28.5 h, 10 µM of the first is higher: 108% for the first, 106% for the second.

Compared with `O=C(O)CCC(=O)Nc1ccccc1C(=O)N1CCCCC1` [CBK266100], `O=C(O)CCN/C(=N\S(=O)(=O)c1ccccc1)c1ccccc1` [CBK266111] is lower in viability at 28.5 h, 10 µM: 99.5% for the first, 92.2% for the second.

First: CCc1ccc(Oc2c(CC(=O)O)oc3cc(O)c(CC)cc3c2=O)cc1 [CBK266108]
Second: COc1ccc(NS(=O)(=O)c2ccc(NC(=O)c3nc4nc(C)cc(C(F)F)n4n3)cc2)cc1 [CBK266123]
The viability at 28.5 h, 10 µM of the first is higher: 106% for the first, 91.4% for the second.

First: O=C(Cn1nc(C(F)(F)F)c2c1CCC2)N1CCN(Cc2ccccc2)CC1 [CBK266113]
Second: O=C(CSc1nc(-c2ccc(F)cc2)cc(C(F)(F)F)n1)NCCN1CCOCC1 [CBK266121]
The viability at 28.5 h, 10 µM of the first is higher: 109% for the first, 99.6% for the second.

Going from `O=C(Nc1ccc(Cl)cc1)Nc1cc(S(=O)(=O)N2CCCC2)ccc1Cl` [CBK266122] to `Cc1sc(NC(=S)NC(=O)COc2ccc(Br)cc2Cl)c(C(N)=O)c1C` [CBK266127], the viability at 28.5 h, 10 µM rises from 98% to 111%.
